41 molecules from PubChem BioAssay AID1996 can be followed below.

Values after ≈ are worked out from the molar mass of the structure shown.

For this data set the following is noted: buffer; pH 7.4; 200.0 µM.
Regarding `Clc1ccccc1OCCCCN1CCCCC1`, the solubility (kinetic) was 39.9 µg/mL (≈ 149 µM).

Consider `COC(=O)c1ccc(N2CCS(=O)(=O)CC2)cc1`, for which the solubility (kinetic) is more than 40.4 µg/mL.

In turn, `COC(=O)c1[nH]c2cc(C)ccc2c1NC(=O)CN1CCOCC1` registered a solubility (kinetic) of more than 49.7 µg/mL. As for `COc1ccc(C(C)(C)C)cc1NC(=O)C1CC(=O)N(C2CCCC2)C1` (stereo unspecified), the figure is more than 53.8 µg/mL; as for `Cc1ccc(NC(=O)COC(=O)C2CC2)cc1Cl`, 35.6 µg/mL (≈ 133 µM).

In the case of `CCOc1ccc(NCCC(O)c2ccc(F)cc2)cc1` (stereo unspecified), the kinetic solubility turned out to be 30.9 µg/mL (≈ 107 µM). The solubility kinetic values of the last two molecules are within 1.5-fold of each other. In turn, `Cc1cc(-c2ccccc2)nc(-c2ccccc2)c1C` displayed a kinetic solubility of less than 0.6 µg/mL.

For the molecule `O=C(O)c1cccc(N2C(=O)CSC2=S)c1`, the kinetic solubility is more than 38 µg/mL.

On to `O=C(OCc1nc2ccsc2c(=O)[nH]1)c1ccco1`, for which the kinetic solubility is more than 41.4 µg/mL. For the molecule `O=C(O)CC(CC(=O)Nc1ccccc1C(=O)O)c1ccccc1` (stereo unspecified), the solubility (kinetic) is more than 49.1 µg/mL. As for `Cc1ccc(NC(=O)c2cc3cc(OC(F)(F)F)ccc3[nH]2)cc1`, the figure is less than 0.4 µg/mL. As for `Cc1c(O)ccc(C(=O)CN2CCN(c3ccccc3F)CC2)c1O`, the solubility (kinetic) was 13.7 µg/mL (≈ 39.8 µM). Molecule `O=C(NCc1ccco1)/C(=C/c1ccco1)NC(=O)c1ccccc1` came in with a solubility (kinetic) of 41.5 µg/mL (≈ 123 µM). `Cn1c(C(=O)N2CCN(c3ccc(F)cc3)CC2)cc2ccccc21` gave a solubility (kinetic) of 2.8 µg/mL (≈ 8.3 µM). As for `O=C(CN1C(=O)c2ccccc2C1=O)N1CCN=C1c1ccccc1`, the figure is more than 50 µg/mL.

As to `Cc1csc(NC(=O)COc2ccc3c(c2)CCC3)n1`, the kinetic solubility was 6.9 µg/mL (≈ 23.9 µM).

In turn, `COCC(=O)N1CCCC(C(=O)c2ccc3c4c(cccc24)CC3)C1` (stereo unspecified) yielded a kinetic solubility of 49.8 µg/mL (≈ 148 µM). As for `OCCN(CCO)c1nc2ccccc2[nH]1`, the figure is more than 33.2 µg/mL; as for `CSc1sccc1/C=N/O`, 18.2 µg/mL (≈ 105 µM).

Regarding `O=C(O)CNC(=S)NCc1ccccc1`, the solubility (kinetic) is more than 33.6 µg/mL. Turning to `Cc1cc(=O)[nH]c(Nc2cccc(F)c2)n1`, the solubility (kinetic) was more than 32.9 µg/mL.

In turn, `Cc1c(C(=O)NCC(c2ccco2)N2CCCC2)sc2ccccc12` (stereo unspecified) returned a solubility (kinetic) of more than 53.2 µg/mL. Regarding `C/C(CC(=O)Nc1ccccn1)=N\NC(=O)c1cnccn1`, the solubility (kinetic) was more than 44.7 µg/mL.

The molecule `CC(CCc1ccccc1)NC(=O)CC(C)c1ccccc1` (stereo unspecified) showed a kinetic solubility of 43.4 µg/mL (≈ 147 µM). Molecule `CC(=O)c1ccc(NC(=O)c2ccccc2-c2ccccc2C(=O)O)cc1` had a solubility (kinetic) of more than 53.9 µg/mL. The same measure for `NC(=O)NC(=O)C(Nc1ccc2c(c1)CCC2)c1ccccc1` (stereo unspecified): 7.9 µg/mL (≈ 25.5 µM). In turn, `O=C(Nc1ccc2c(c1)OCCO2)c1ccc(Cl)cc1` registered a kinetic solubility of 2.1 µg/mL (≈ 7.25 µM). In the case of `COc1ccc(C(=O)N[C@H](C(=O)NCCCSc2ccccc2)C(C)C)cc1`, the solubility (kinetic) was determined as 2.2 µg/mL (≈ 5.49 µM). Molecule `O=C(CSc1ccccn1)Nc1ccc(F)c([N+](=O)[O-])c1` showed a kinetic solubility of 43.5 µg/mL (≈ 142 µM). Take `Clc1ccc(C[n+]2cc(-c3ccc(Cl)cc3)n3c2CCC3)cc1.[Cl-]`: the solubility (kinetic) was more than 57 µg/mL.

`CCOc1ccc(NC(=S)Nc2cccc3ccccc23)cc1` yielded a solubility (kinetic) of 2 µg/mL (≈ 6.2 µM). Consider `C=CCNC(=S)/N=c1/ccccn1C`, for which the kinetic solubility is more than 31.1 µg/mL.

For the molecule `O=C(O)c1nn(-c2cccc(C(F)(F)F)c2)ccc1=O`, the kinetic solubility was more than 42.6 µg/mL.

In the case of `Cc1cc(C(C)(C)C)cc(C)c1S(=O)(=O)N1CC(=O)Nc2ccccc21`, the kinetic solubility was determined as 5.7 µg/mL (≈ 15.3 µM). As for `Cc1sc(N)nc1-c1ccc2c(c1)OCCO2`, the figure is 19.5 µg/mL (≈ 78.5 µM). As for `Cc1cccc(NS(=O)(=O)c2ccc([N+](=O)[O-])cc2)n1`, the kinetic solubility turned out to be 39.4 µg/mL (≈ 134 µM). Take `CN1CCN(S(=O)(=O)c2ccc(NC(=O)c3ccc([N+](=O)[O-])cc3)cc2)CC1`: the kinetic solubility was 4.9 µg/mL (≈ 12.1 µM). `Cc1ccc(/C=C/C(=O)O)cc1S(=O)(=O)N1CCCCC1` showed a solubility (kinetic) of more than 46.4 µg/mL. In the case of `Cc1nc2ccc(NS(=O)(=O)c3ccc(F)c(F)c3F)cc2s1`, the solubility (kinetic) was found to be 50.7 µg/mL (≈ 141 µM).

The molecule `COc1ccc(N(CCC#N)C(=O)/C(C#N)=C\c2cccs2)cc1` came in with a kinetic solubility of more than 50.6 µg/mL. `Cc1ccc(N(Cc2cc(=O)[nH]c3ccccc23)C(=O)CCl)c(C)c1` showed a solubility (kinetic) of 14.1 µg/mL (≈ 39.7 µM).

By kinetic solubility is commonly meant solubility judged after dilution from a stock solution rather than from solid.
